Test results as given in patent US8791264B2 (Purdue Pharma L.P., priority 2006, dated 2014).

Legend:
[1] = biological target: T1, N-type calcium channel (NTCC) (Homo sapiens, UniProt Q00975); assay: FLIPR calcium mobilization assay for N-type calcium channel; assay type: cell-based; conditions: calcium mobilization in vitro assay; differentiated IMR32 cells
T1 construct: host or cells: IMR32 cells differentiated with dibutyryl cAMP and bromodeoxyuridine
Experimental: Unless noted otherwise, cell culture reagents were purchased from Mediatech of Herndon, Md. IMR32 cells (American Type Culture Collection, ATCC, Manassas, Va.) were routinely cultured in growth medium consisting of minimum essential medium containing 10% fetal bovine serum (FBS, Hyclone, Logan, Utah), 100 U/mL penicillin, 100 μg/mL streptomycin, 2 mM L-glutamine, 1 mM sodium pyruvate, and 1× MEM non-essential amino acids. 80-90% confluent flasks of cells were differentiated using the following differentiation medium: Growth medium plus 1 mM dibutyryl cyclic AMP (Sigma, St. Louis, Mo.), and 2.5 μM bromodeoxyuridine (Sigma). Cells were differentiated for 8 days by replacing differentiation medium every 2-3 days.
FLIPR Calcium Mobilization Assay for N-Type Calcium Channel.
One day prior to performing this assay, differentiated IMR32 cells were treated with 1× CellStripper, and seeded on poly-D-lysine-coated 96-well clear-bottom black plates (Becton Dickinson, Franklin Lakes, N.J.) at 200,000 cells/well. On the day of the assay, the cell plates were washed with IMR32 buffer (127 mM NaCl, 1 mM KCl, 2 mM MgCl2, 700 μM NaH2PO4, 5 mM CaCl2, 5 mM NaHCO3, 8 mM HEPES, 10 mM glucose, pH 7.4), then pre-stimulated with KCl and loaded as follows: 0.05 mL of IMR32 buffer, 0.05 mL of each compound tested diluted in IMR32 buffer containing 20 μM nitrendipine (Sigma), and 0.1 mL KCl dissolved in IMR32 buffer, plus Fluo-4 were added (3 μM final concentration, Molecular Probes, Eugene, Oreg.). Final test compound concentrations ranged from about 846 pM to about 17 μM, final nitrendipine concentration was 5 μM, and final KCl concentration was 90 mM. After 1 hour, the cells were washed twice with 0.05 mL of each compound is tested in nitrendipine-containing IMR32 buffer (no KCl or Fluo-4), and then replaced with 0.1 mL of each compound tested in nitrendipine-containing IMR32 buffer. Plates were then transferred to a Fluorimetric Imaging Plate Reader (FLIPR^96, Molecular Devices, Inc., Sunnyvale, Calif.) for assay. The FLIPR measured basal Fluo-4 fluorescence for 315 seconds (i.e., 5 minutes and 15 seconds), then added 0.1 mL KCl agonist dissolved in IMR32 buffer and measured fluorescence for another 45 seconds. Final test compound concentrations on the cells after FLIPR read ranged from about 846 pM to about 17 μM, final nitrendipine concentration was 5 μM, and final KCl concentration was 90 mM. Data were collected over the entire time course and analyzed using Excel, Graph Pad Prism (version 3.02, Graph Pad, San Diego, Calif.), or an in-house non-linear regression analysis software.

[2] = biological target: T2, recombinant rat L-type calcium channel (LTCC) subunits (α1c, α2δ, and β1) (Rattus norvegicus, UniProt P22002); assay: FLIPR calcium mobilization assay for L-type calcium channel; assay type: cell-based; conditions: calcium mobilization in vitro assay; HEK293 cells expressing rat LTCC
T2 construct: expressed in transfected cells
T2 sequence (P22002 whole entry): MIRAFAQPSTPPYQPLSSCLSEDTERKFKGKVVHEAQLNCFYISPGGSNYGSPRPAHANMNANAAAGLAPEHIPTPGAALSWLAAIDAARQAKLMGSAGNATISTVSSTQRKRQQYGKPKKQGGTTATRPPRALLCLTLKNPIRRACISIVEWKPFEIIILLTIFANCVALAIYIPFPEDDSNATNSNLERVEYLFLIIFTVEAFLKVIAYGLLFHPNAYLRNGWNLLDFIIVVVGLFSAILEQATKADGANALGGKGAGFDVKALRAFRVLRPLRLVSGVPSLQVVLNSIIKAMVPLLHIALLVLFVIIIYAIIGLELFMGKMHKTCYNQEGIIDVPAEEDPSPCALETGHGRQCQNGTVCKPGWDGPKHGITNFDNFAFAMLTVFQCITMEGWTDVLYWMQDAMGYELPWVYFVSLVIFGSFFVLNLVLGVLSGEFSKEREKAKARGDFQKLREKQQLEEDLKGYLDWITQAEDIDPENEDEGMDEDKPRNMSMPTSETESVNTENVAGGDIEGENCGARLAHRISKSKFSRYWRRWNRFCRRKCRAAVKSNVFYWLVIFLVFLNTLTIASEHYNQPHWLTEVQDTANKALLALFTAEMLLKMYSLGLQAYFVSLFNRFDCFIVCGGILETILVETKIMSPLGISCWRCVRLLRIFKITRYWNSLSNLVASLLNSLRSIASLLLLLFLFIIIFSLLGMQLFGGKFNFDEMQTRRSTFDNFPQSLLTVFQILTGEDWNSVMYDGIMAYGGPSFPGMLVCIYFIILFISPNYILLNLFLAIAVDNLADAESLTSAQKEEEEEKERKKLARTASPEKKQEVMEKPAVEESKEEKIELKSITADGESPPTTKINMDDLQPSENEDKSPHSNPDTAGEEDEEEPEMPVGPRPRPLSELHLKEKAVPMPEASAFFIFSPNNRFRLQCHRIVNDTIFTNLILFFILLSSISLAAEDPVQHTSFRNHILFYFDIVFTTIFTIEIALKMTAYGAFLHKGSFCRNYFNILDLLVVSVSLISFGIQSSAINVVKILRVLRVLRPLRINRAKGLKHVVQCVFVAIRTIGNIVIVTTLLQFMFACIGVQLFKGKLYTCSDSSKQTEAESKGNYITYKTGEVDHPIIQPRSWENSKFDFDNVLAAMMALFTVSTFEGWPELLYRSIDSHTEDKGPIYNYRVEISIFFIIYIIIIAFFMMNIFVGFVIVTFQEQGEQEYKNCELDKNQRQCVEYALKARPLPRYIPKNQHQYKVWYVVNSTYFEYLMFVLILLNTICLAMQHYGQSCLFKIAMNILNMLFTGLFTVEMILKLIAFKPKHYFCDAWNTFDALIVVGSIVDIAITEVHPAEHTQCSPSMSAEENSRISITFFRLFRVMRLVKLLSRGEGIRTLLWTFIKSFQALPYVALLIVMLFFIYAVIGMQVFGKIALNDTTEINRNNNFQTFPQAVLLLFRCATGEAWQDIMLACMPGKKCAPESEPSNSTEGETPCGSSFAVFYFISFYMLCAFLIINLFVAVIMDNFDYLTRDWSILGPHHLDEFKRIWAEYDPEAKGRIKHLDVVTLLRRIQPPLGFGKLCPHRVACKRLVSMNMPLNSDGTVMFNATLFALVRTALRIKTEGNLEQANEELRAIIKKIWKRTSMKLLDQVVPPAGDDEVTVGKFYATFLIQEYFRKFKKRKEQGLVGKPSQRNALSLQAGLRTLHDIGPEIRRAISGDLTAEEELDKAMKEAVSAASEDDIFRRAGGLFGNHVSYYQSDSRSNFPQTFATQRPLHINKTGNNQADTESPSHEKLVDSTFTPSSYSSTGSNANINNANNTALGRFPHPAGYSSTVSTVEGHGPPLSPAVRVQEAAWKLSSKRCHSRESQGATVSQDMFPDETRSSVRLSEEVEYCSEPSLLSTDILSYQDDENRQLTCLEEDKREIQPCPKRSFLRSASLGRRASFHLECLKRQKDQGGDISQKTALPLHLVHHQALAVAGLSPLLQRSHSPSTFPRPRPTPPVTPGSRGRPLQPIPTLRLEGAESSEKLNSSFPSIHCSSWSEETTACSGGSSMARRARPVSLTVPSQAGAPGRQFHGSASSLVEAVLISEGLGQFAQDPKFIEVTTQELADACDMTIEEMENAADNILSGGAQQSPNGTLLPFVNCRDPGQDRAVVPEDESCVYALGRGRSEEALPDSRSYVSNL
T2 sequence (P54290 25-944 partner limits assumed): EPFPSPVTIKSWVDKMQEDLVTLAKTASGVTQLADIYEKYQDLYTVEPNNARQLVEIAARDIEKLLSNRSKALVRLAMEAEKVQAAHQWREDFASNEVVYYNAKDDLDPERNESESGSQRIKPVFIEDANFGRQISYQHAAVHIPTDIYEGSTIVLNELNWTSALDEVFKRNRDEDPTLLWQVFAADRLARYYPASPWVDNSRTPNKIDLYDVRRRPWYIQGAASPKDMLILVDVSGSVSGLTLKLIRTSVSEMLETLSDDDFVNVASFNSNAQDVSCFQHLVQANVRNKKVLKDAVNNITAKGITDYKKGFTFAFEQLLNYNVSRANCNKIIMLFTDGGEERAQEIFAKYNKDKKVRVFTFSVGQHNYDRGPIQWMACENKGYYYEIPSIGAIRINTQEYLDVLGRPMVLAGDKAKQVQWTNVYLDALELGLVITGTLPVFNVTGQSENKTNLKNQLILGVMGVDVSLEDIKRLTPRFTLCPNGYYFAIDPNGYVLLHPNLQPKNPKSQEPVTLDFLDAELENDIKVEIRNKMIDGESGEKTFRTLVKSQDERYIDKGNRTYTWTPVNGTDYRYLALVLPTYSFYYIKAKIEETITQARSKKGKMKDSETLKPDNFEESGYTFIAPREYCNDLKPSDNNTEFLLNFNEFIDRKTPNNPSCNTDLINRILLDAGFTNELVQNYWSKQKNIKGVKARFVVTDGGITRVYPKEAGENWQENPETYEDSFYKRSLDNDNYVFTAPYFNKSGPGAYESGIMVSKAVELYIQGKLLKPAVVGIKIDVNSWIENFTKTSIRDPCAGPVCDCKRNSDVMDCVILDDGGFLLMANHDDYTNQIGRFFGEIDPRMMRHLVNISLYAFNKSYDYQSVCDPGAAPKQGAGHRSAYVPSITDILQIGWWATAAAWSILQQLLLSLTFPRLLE
T2 sequence (P54290 945-1091 partner limits assumed): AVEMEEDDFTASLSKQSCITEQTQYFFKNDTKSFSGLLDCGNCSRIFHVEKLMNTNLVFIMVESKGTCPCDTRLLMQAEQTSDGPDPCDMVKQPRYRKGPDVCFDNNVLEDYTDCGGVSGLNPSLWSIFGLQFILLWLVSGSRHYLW
T2 sequence (P54283 whole entry partner): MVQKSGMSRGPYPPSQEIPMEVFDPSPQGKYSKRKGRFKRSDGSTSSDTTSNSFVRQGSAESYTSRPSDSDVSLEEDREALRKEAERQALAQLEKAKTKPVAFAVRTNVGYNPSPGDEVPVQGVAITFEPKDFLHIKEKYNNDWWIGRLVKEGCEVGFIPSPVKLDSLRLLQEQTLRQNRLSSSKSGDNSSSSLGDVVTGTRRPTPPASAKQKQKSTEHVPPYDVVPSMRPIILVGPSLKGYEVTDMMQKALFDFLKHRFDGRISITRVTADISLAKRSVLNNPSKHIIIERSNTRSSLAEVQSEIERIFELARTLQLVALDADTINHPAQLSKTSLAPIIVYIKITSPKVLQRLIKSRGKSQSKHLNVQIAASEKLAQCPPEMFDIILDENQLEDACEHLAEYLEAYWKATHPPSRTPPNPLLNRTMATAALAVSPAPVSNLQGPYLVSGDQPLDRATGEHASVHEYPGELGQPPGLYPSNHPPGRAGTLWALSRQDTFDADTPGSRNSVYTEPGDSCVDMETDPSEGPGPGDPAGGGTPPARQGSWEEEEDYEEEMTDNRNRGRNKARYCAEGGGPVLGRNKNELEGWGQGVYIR
Experimental: Recombinant human embryonal kidney cells (HEK293, ATCC) stably transfected with either N-type calcium channel (NTCC) subunits (α1b, α2δ, and ⊖3) or L-type calcium channel (LTCC) subunits (α1, α2δ, and β1) were routinely cultured in growth medium consisting of Dulbecco's Modified Eagles Medium containing 10% FBS, 100 U/mL penicillin, 100 μg/mL streptomycin, 4 mM L-glutamine, 500 μg/mL geneticin (G418), 20 μg/mL Blasticidin S (InVivogen, San Diego, Calif.) and 500 μg/mL zeocin (InVivogen).
FLIPR Calcium Mobilization Assay for L-Type Calcium Channel.
One day prior to performing this assay, HEK293 cells stably expressing recombinant rat L-type calcium channel (LTCC) subunits (α1c, α2δ, and β1) were trypsinized, then seeded on poly-D-lysine-coated 96-well clear-bottom black plates (Becton Dickinson, Franklin Lakes, N.J.) at 75,000 cells/well. On the day of the assay, the plates were washed with LTCC wash buffer (127 mM NaCl, 2 mM MgCl2, 700 μM NaH2PO4, 5 mM CaCl2, 5 mM NaHCO3, 8 mM HEPES, 10 mM glucose, pH 7.4), then loaded with 0.1 mL of LTCC wash buffer containing Fluo-4 (3 μM final concentration, Molecular Probes, Eugene, Oreg.). After 1 hour, the cells were washed with 0.1 mL LTCC wash buffer and resuspended in 0.05 mL LTCC assay buffer (same composition as LTCC wash buffer). Plates were then transferred to a FLIPR^96 for assay. The FLIPR measured basal Fluo-4 fluorescence for 15 seconds, then is added 0.05 mL of each compound tested diluted in LTCC assay buffer at final concentrations ranging from about 846 pM to about 17 μM. Fluo-4 fluorescence was then measured for 5 minutes. 0.1 mL KCl agonist dissolved in LTCC assay buffer was then added to the cells to produce a final concentration of 90 mM KCl, and fluorescence was measured for another 45 seconds. Data were collected over the entire time course and analyzed using Excel, Graph Pad Prism, or an in-house regression analysis software.

Molecule	IC50 [1]	IC50 [2]
CCC(NC1CC1)C(=O)N1CCC(N(C(C)C)S(=O)(=O)c2cccc(C(F)(F)F)c2)CC1 (stereo not drawn) [Compound 92, N-[1-(2-Cyclopropylaminobutyryl)-piperidin-4-yl]-N-isopropyl-3-trifluoromethylbenzenesulfonamide]	5270 nM	–
CC(NCCCn1ccnc1)C(=O)N1CCC(N(C(C)C)S(=O)(=O)c2cccc(C(F)(F)F)c2)CC1 (stereo not drawn) [Compound 90, N-{1-[2-(3-Imidazol-1-yl-propylamino)propionyl]-piperidin-4-yl}-N-isopropyl-3-trifluoromethylbenzenesulfonamide]	9560 nM	–
O=C(CN1CCC(N(C2CC2)S(=O)(=O)c2ccc(Cl)cc2)CC1)Nc1cc(C(F)(F)F)cc(C(F)(F)F)c1 [Compound 67, N-(3,5-Bis-trifluoromethylphenyl)-2-{4-[(4-chlorobenzenesulfonyl)-cyclopropylamino]-piperidin-1-yl}-acetamide]	4170 nM	–
CC(C)NC(=O)C(=O)N1CCC(N(C2CC2)S(=O)(=O)c2cccc(C(F)(F)F)c2)CC1 [2-{4-[cyclopropyl-(3-trifluoromethylbenzenesulfonyl)-amino]-piperidin-1-yl}-N-isopropyl-2-oxo-acetamide]	3200 nM	–
CC(C)CNC(=O)CN1CCC(N(C2CC2)S(=O)(=O)c2ccccc2)CC1 [Compound 37, 2-[4-(Benzenesulfonyl-cyclopropylamino)-piperidin-1-yl]-N-isobutylacetamide]	> 20000 nM	–
C=CCC(N)C(=O)N1CCC(N(C(C)C)S(=O)(=O)c2cccc(C(F)(F)F)c2)CC1 (stereo not drawn) [N-[1-(2-amino-pent-4-enoyl)-piperidin-4-yl]-N-isopropyl-3-trifluoromethyl-benzenesulfonamide]	2940 nM	–
O=C(CNCc1ccc(F)cc1)N1CCC(N(C2CC2)S(=O)(=O)c2ccccc2)CC1 [Compound 98, N-Cyclopropyl-N-{1-[2-(4-fluorobenzylamino)acetyl]-piperidin-4-yl}-benzenesulfonamide]	2670 nM	–
2-[4-(Benzenesulfonylmethylamino)-piperidin-1-yl]-N-(4-fluorophenyl)acetamide [Compound 47]	2950 nM	–
CC(C)N(C1CCN(C(=O)C2CNC2)CC1)S(=O)(=O)c1cccc(C(F)(F)F)c1 [N-[1-(azetidine-3-carbonyl)-piperidin-4-yl]-N-isopropyl-3-trifluoromethyl-benzenesulfonamide]	2910 nM	–
O=C(CC(=O)N1CCC(NS(=O)(=O)c2cccc(C(F)(F)F)c2)CC1)Nc1ccc(F)cc1F [Compound 115, N-(2,4-Difluorophenyl)-3-oxo-3-[4-(3-trifluoromethylbenzenesulfonylamino)-piperidin-1-yl]-propionamide]	3180 nM	–
COc1ccc(CNCC(=O)N2CCC(N(C3CC3)S(=O)(=O)c3ccccc3)CC2)cc1 [Compound 97, N-Cyclopropyl-N-{1-[2-(4-methoxy-benzylamino)acetyl]-piperidin-4-yl}-benzenesulfonamide]	2360 nM	–
CC(C)N(C1CCN(C(=O)C2(N)CCOCC2)CC1)S(=O)(=O)c1cccc(C(F)(F)F)c1 [N-[1-(4-amino-tetrahydro-pyran-4-carbonyl)-piperidin-4-yl]-N-isopropyl-3-trifluoromethyl-benzenesulfonamide]	8330 nM	–

Molecules with a lower IC50 [1], results first:

IC50 [1]	IC50 [2]	Molecule
860 nM	> 20000 nM	O=C(CN1CCC(N(C2CC2)S(=O)(=O)c2cccc(C(F)(F)F)c2)CC1)Nc1cc(Cl)cc(Cl)c1 [Compound 79, 2-{4-[Cyclopropyl-(3-trifluoromethylbenzenesulfonyl)amino]-piperidin-1-yl}-N-(3,5-dichlorophenyl)-acetamide]
630 nM	8100 nM	COc1ccccc1CNCC(=O)N1CCC(N(C2CC2)S(=O)(=O)c2ccc(Cl)cc2)CC1 [Compound 101, 4-Chloro-N-cyclopropyl-N-{1-[2-(2-methoxybenzylamino)acetyl]-piperidin-4-yl}-benzenesulfonamide]
620 nM	> 20000 nM	COc1cc(NCCC(=O)N2CCC(N(C(C)C)S(=O)(=O)c3cccc(C(F)(F)F)c3)CC2)ccc1F [N-{1-[3-(4-fluoro-3-methoxy-phenylamino)-propionyl]-piperidin-4-yl}-N-isopropyl-3-trifluoromethyl-benzenesulfonamide]
1040 nM	–	CC(C)N(C1CCN(C(=O)CCNc2cccc(F)c2)CC1)S(=O)(=O)c1cccc(C(F)(F)F)c1 [N-{1-[3-(3-fluoro-phenylamino)-propionyl]-piperidin-4-yl}-N-isopropyl-3-trifluoromethyl-benzenesulfonamide]
1310 nM	–	O=C(CN1CCC(N(C2CC2)S(=O)(=O)c2ccc(Cl)cc2)CC1)Nc1ccc(F)cc1 [Compound 49, 2-{4-[(4-Chlorobenzenesulfonyl)cyclopropylamino]-piperidin-1-yl}-N-(4-fluorophenyl)acetamide]
1490 nM	–	NCCN1CCC(N(C2CC2)S(=O)(=O)c2cccc(C(F)(F)F)c2)CC1 [Compound 114, N-[1-(2-Aminoethyl)-piperidin-4-yl]-N-cyclopropyl-3-trifluoromethylbenzenesulfonamide]
1150 nM	–	CCC(NCc1ccccc1)C(=O)N1CCC(N(C(C)C)S(=O)(=O)c2cccc(C(F)(F)F)c2)CC1 (stereo not drawn) [Compound 91, N-[1-(2-Benzylaminobutyryl)-piperidin-4-yl]-N-isopropyl-3-trifluoromethylbenzenesulfonamide]
1390 nM	–	CC(C)N(C1CCN(C(=O)CCNc2ccc(C#N)cc2)CC1)S(=O)(=O)c1cccc(C(F)(F)F)c1 [N-{1-[3-(4-cyano-phenylamino)-propionyl]-piperidin-4-yl}-N-isopropyl-3-trifluoromethyl-benzenesulfonamide]
470 nM	–	CC(C)N(C1CCN(C(=O)C(N)Cc2csc3ccccc23)CC1)S(=O)(=O)c1cccc(C(F)(F)F)c1 (stereo not drawn) [N-[1-(2-amino-3-benzo[b]thiophen-3-yl-propionyl)-piperidin-4-yl]-N-isopropyl-3-trifluoromethyl-benzenesulfonamide]
1130 nM	–	Cc1cccc(C)c1NC(=O)CN1CCC(N(C(C)C)S(=O)(=O)c2cccc(C(F)(F)F)c2)CC1 [Compound 42a, N-(2,6-Dimethylphenyl)-2-{4-[isopropyl-(3-trifluoromethylbenzenesulfonyl)amino]-piperidin-1-yl}-acetamide]
1630 nM	–	Cc1ccc(NC(=O)CN2CCC(N(C(C)C)S(=O)(=O)c3cccc(C(F)(F)F)c3)CC2)cc1 [Compound 42e, 2-{4-[Isopropyl-(3-trifluoromethylbenzenesulfonyl)amino]-piperidin-1-yl}-N-p-tolyl-acetamide]
1000 nM	–	COc1ccc(NCCC(=O)N2CCC(N(C(C)C)S(=O)(=O)c3cccc(C(F)(F)F)c3)CC2)cc1 [N-isopropyl-N-{1-[3-(4-methoxy-phenylamino)-propionyl]-piperidin-4-yl}-3-trifluoromethyl-benzenesulfonamide]
